# Where two headings read alike, the source gives them in different places.
# Legend:
# ERBB2 = ERBB2 (HER2) flow cytometry protein degradation assay in BT-474 cells; type: cell-based, human; conditions: DC50, BT-474 cells, 24 hr
# Experimental: To analyze total ERBB2 expression by flow cytometry, cells were detached with trypsin, washed, counted and treated with 10 μl/10^6 cells PE-conjugated, anti-ERBB2 monoclonal antibody (R&D Systems, #FAB1129P) for 30 min at 25° C. in dark. Cells were then washed, resuspended in 200 μl 1% paraformaldehyde and analyzed by flow cytometry.
# % Inhibition=100−(D−B)/(S−B)*100%. • S: Fluorescence intensity of cells with antibody • D: Fluorescence intensity of compound-treated cells with antibody • B: Fluorescence intensity of cells without antibody
# [1] = tested on: MV-4-11 human acute myeloid leukemia; test: MV-4-11 CCK-8 proliferation assay; type: cell-based; conditions: MV-4-11 cells, 72 hr
# Outline: (§1)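 Inhibition is derived from CCK-8 absorbance of compound-treated cells relative to DMSO-treated cells, after subtracting a cell-free medium/DMSO background. Test concentrations span 20 μM down to 1.02 nM in 3-fold steps, and lines are cultured as ATCC recommends.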
# [2] = tested on: U-87 MG human glioblastoma; test: U87 MG CCK-8 proliferation assay; type: cell-based; conditions: U-87 MG cells, read-out: U87MG CCK-8
# Outline: as §1
# HSP90α protein = biological target: T1, HSP90α protein (Homo sapiens, UniProt P07900); test: HSP90α-binding FP (BODIPY) assay; conditions: FP competition with BODIPY-labeled RNK04010
# T1 construct: purchased BPS Bioscience #50298
# Outline: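 Fluorescence polarization measured competition with N-terminal human HSP90α, using either FITC-geldanamycin or BODIPY-labelled triazolone RNK04010 as tracer (5 nM final each). Compounds were tested in 2.5-fold dilutions from 20 μM to 5.2 nM, with incubation at 25 °C for 120 min (FITC) or 300 min (BODIPY).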
Compound,"EC50 ([1]; Homo sapiens, MV4-11)","EC50 ([2]; Homo sapiens, U-87 MG, 72 h)",IC50 (HSP90α protein),ERBB2 degradation (ERBB2),EC50 ([2]; 72 hr),EC50 [1]
"CCOc1cc(N2CCC(C(=O)NCc3ccc(-n4c(O)nnc4-c4cc(CC)c(O)cc4O)cc3)CC2)ccc1Nc1ncc2c(n1)N(C)c1ccccc1C(=O)N2C [Compound 028, 1-(4-((5,11-dimethyl-6-oxo-6,11-dihydro-5H-benzo[e]pyrimido[5,4-b][1,4]diazepin-2-yl)amino)-3-ethoxyphenyl)-N-(4-(3-(5-ethyl-2,4-dihydroxyphenyl)-5-hydroxy-4H-1,2,4-triazol-4-yl)benzyl)piperidine-4-carboxamide]",100 to 1000 nM,> 1000 nM,100 to 1000 nM,B (DC50 = 100-1000 nM),–,–
"CCCc1cc(-c2nnc(O)n2-c2ccc(CNC(=O)C3CCN(c4ccc(Nc5ncc6c(n5)N(C)c5ccccc5C(=O)N6C)c(OCC)c4)CC3)cc2)c(O)cc1O [Compound 029, N-(4-(3-(2,4-dihydroxy-5-propylphenyl)-5-hydroxy-4H-1,2,4-triazol-4-yl)benzyl)-1-(4-((5,11-dimethyl-6-oxo-6,11-dihydro-5H-benzo[e]pyrimido[5,4-b][1,4]diazepin-2-yl)amino)-3-ethoxyphenyl)piperidine-4-carboxamide]",100 to 1000 nM,–,–,B (DC50 = 100-1000 nM),> 1000 nM,–
"CCOc1cc(N2CCC(C(=O)NCc3ccc(-n4c(O)nnc4-c4cc(C(C)C)c(O)cc4O)cc3C(F)(F)F)CC2)ccc1Nc1ncc2c(n1)N(C)c1ccccc1C(=O)N2C [Compound 030, N-(4-(3-(2,4-dihydroxy-5-isopropylphenyl)-5-hydroxy-4H-1,2,4-triazol-4-yl)-2-(trifluoromethyl)benzyl)-1-(4-((5,11-dimethyl-6-oxo-6,11-dihydro-5H-benzo[e]pyrimido[5,4-b][1,4]diazepin-2-yl)amino)-3-ethoxyphenyl)piperidine-4-carboxamide]",100 to 1000 nM,> 1000 nM,–,B (DC50 = 100-1000 nM),–,–
"CCOc1cc(N2CCC(C(=O)NCc3ccc(-n4c(O)nnc4-c4cc(CC)c(O)cc4O)cc3C(F)(F)F)CC2)ccc1Nc1ncc2c(n1)N(C)c1ccccc1C(=O)N2C [Compound 031, 1-(4-((5,11-dimethyl-6-oxo-6,11-dihydro-5H-benzo[e]pyrimido[5,4-b][1,4]diazepin-2-yl)amino)-3-ethoxyphenyl)-N-(4-(3-(5-ethyl-2,4-dihydroxyphenyl)-5-hydroxy-4H-1,2,4-triazol-4-yl)-2-(trifluoromethyl)benzyl)piperidine-4-carboxamide]",> 1000 nM,> 1000 nM,> 1000 nM,C (DC50 > 1000 nM),–,–
"CCOc1cc(N2CCC(C(=O)NCc3ccc(-n4c(O)nnc4-c4cc(CC)c(O)cc4O)cc3F)CC2)ccc1Nc1ncc2c(n1)N(C)c1ccccc1C(=O)N2C [Compound 037, 1-(4-((5,11-dimethyl-6-oxo-6,11-dihydro-5H-benzo[e]pyrimido[5,4-b][1,4]diazepin-2-yl)amino)-3-ethoxyphenyl)-N-(4-(3-(5-ethyl-2,4-dihydroxyphenyl)-5-hydroxy-4H-1,2,4-triazol-4-yl)-2-fluorobenzyl)piperidine-4-carboxamide]",100 to 1000 nM,100 to 1000 nM,–,B (DC50 = 100-1000 nM),–,–
"CCCc1cc(-c2nnc(O)n2-c2ccc(CNC(=O)C3CCN(c4ccc(Nc5ncc6c(n5)N(C)c5ccccc5C(=O)N6C)c(OCC)c4)CC3)cc2)c(O)cc1O [Compound 039, N-(4-(3-(2,4-dihydroxy-5-propylphenyl)-5-hydroxy-4H-1,2,4-triazol-4-yl)benzyl)-1-(4-((5,11-dimethyl-6-oxo-6,11-dihydro-5H-benzo[e]pyrimido[5,4-b][1,4]diazepin-2-yl)amino)-3-ethoxyphenyl)piperidine-4-carboxamide]",–,–,–,B (DC50 = 100-1000 nM),100 to 1000 nM,100 to 1000 nM
"(1R,4R)-4-((2-carbamoyl-5-(6,6-dimethyl-4-oxo-3-(trifluoromethyl)-4,5,6,7-tetrahydro-1H-indazol-1-yl)phenyl)amino)cyclohexyl 4-(1-(4-((5,11-dimethyl-6-oxo-6,11-dihydro-5H-benzo[e]pyrimido[5,4-b][1,4]diazepin-2-yl)amino)-3-ethoxyphenyl)piperidine-4-carbonyl)piperazine-1-carboxylate [Compound 104]",–,–,> 1000 nM,–,> 1000 nM,> 1000 nM
"(1R,4R)-4-((2-carbamoyl-5-(6,6-dimethyl-4-oxo-3-(trifluoromethyl)-4,5,6,7-tetrahydro-1H-indazol-1-yl)phenyl)amino)cyclohexyl (3-(1-(4-((5,11-dimethyl-6-oxo-6,11-dihydro-5H-benzo[e]pyrimido[5,4-b][1,4]diazepin-2-yl)amino)-3-ethoxyphenyl)piperidine-4-carboxamido)propyl)carbamate [Compound 102]",–,–,> 1000 nM,–,> 1000 nM,100 to 1000 nM

# Continued, in another order:
"EC50 ([1]; Homo sapiens, MV4-11)","EC50 ([2]; Homo sapiens, U-87 MG, 72 h)",IC50 (HSP90α protein),Compound,ERBB2 degradation (ERBB2),EC50 ([2]; 72 hr),EC50 [1]
100 to 1000 nM,> 1000 nM,–,"CCOc1cc(N2CCC(C(=O)NCc3ccc(-n4c(O)nnc4-c4cc(C)c(O)cc4O)cc3)CC2)ccc1Nc1ncc2c(n1)N(C)c1ccccc1C(=O)N2C [Compound 027, N-(4-(3-(2,4-dihydroxy-5-methylphenyl)-5-hydroxy-4H-1,2,4-triazol-4-yl)benzyl)-1-(4-((5,11-dimethyl-6-oxo-6,11-dihydro-5H-benzo[e]pyrimido[5,4-b][1,4]diazepin-2-yl)amino)-3-ethoxyphenyl)piperidine-4-carboxamide]",C (DC50 > 1000 nM),–,–
< 100 nM,100 to 1000 nM,100 to 1000 nM,"CCOc1cc(N2CCC(C(=O)NCCc3ccc(CN4CCC(Cc5ccc(-n6c(C(=O)NCC(F)(F)F)nnc6-c6cc(C(C)C)c(O)cc6O)cc5)CC4)cc3)CC2)ccc1Nc1ncc2c(n1)N(C)c1ccccc1C(=O)N2C [Compound 035, N-(4-((4-(4-(3-(2,4-dihydroxy-5-isopropylphenyl)-5-((2,2,2-trifluoroethyl)carbamoyl)-4H-1,2,4-triazol-4-yl)benzyl)piperidin-1-yl)methyl)phenethyl)-1-(4-((5,11-dimethyl-6-oxo-6,11-dihydro-5H-benzo[e]pyrimido[5,4-b][1,4]diazepin-2-yl)amino)-3-ethoxyphenyl)piperidine-4-carboxamide]",B (DC50 = 100-1000 nM),–,–
< 100 nM,> 1000 nM,100 to 1000 nM,"CCOc1cc(N2CCC(C(=O)N3CCC(N4CCN(Cc5ccc(-n6c(O)nnc6-c6cc(C(C)C)c(O)cc6O)cc5C(F)(F)F)CC4)CC3)CC2)ccc1Nc1ncc2c(n1)N(C)c1ccccc1C(=O)N2C [Compound 038, 2-((4-(4-(4-(4-(4-(3-(2,4-dihydroxy-5-isopropylphenyl)-5-hydroxy-4H-1,2,4-triazol-4-yl)-2-(trifluoromethyl)benzyl)piperazin-1-yl)piperidine-1-carbonyl)piperidin-1-yl)-2-ethoxyphenyl)amino)-5,11-dimethyl-5,11-dihydro-6H-benzo[e]pyrimido[5,4-b][1,4]diazepin-6-one]",B (DC50 = 100-1000 nM),–,–
< 100 nM,100 to 1000 nM,–,"CCOc1cc(N2CCC(C(=O)NCc3ccc(CN4CCC(Cc5ccc(-n6c(C(=O)NC(C)C)nnc6-c6cc(C(C)C)c(O)cc6O)cc5)CC4)cc3)CC2)ccc1Nc1ncc2c(n1)N(C)c1ccccc1C(=O)N2C [Compound 056, N-(4-((4-(4-(3-(2,4-dihydroxy-5-isopropylphenyl)-5-(isopropylcarbamoyl)-4H-1,2,4-triazol-4-yl)benzyl)piperidin-1-yl)methyl)benzyl)-1-(4-((5,11-dimethyl-6-oxo-6,11-dihydro-5H-benzo[e]pyrimido[5,4-b][1,4]diazepin-2-yl)amino)-3-ethoxyphenyl)piperidine-4-carboxamide]",B (DC50 = 100-1000 nM),–,–
< 100 nM,100 to 1000 nM,100 to 1000 nM,"CCOc1cc(N2CCC(C(=O)N3CCC(Cc4ccc(CN(C)Cc5ccc(-n6c(C(=O)NCC(F)(F)F)nnc6-c6cc(C(C)C)c(O)cc6O)cc5)cn4)CC3)CC2)ccc1Nc1ncc2c(n1)N(C)c1ccccc1C(=O)N2C [Compound 057, 5-(2,4-dihydroxy-5-isopropylphenyl)-4-(4-((((6-((1-(1-(4-((5,11-dimethyl-6-oxo-6,11-dihydro-5H-benzo[e]pyrimido[5,4-b][1,4]diazepin-2-yl)amino)-3-ethoxyphenyl)piperidine-4-carbonyl)piperidin-4-yl)methyl)pyridin-3-yl)methyl)(methyl)amino)methyl)phenyl)-N-(2,2,2-trifluoroethyl)-4H-1,2,4-triazole-3-carboxamide]",B (DC50 = 100-1000 nM),–,–

# Reference: US20240124460A1, “METHODS AND COMPOSITIONS FOR TARGETED PROTEIN DEGRADATION” (Ranok Therapeutics (Hangzhou) Co. Ltd., priority 2020, published 2024)
